Data: the NIST ThermoML archive (doi:10.1021/acs.jced.8b00372)
± gives the expanded uncertainty stated by the source.

Conditions: 313.15 K, Ring tensiometer

surface tension liquid-gas: 67.2 ± 2.8 mN/m
Compound: O [water]
